US20260274832A1, “COMPOUNDS AND THEIR USE IN TREATING CANCER” (ASTRAZENECA AB, priority 2023, published 2026)

Tests used:
[1] = molecular target: T1, AR (AR-full length) in LNCaP cells (Homo sapiens, UniProt P10275, T878A); assay: LNCaP Androgen Receptor Imaging Assay (immunofluorescence of endogenous nuclear AR); assay type: cell-based; conditions: 24 h incubation; for DC50: concentration giving 50% of maximum degradation of AR per curve fit, single experiment or average of two or more; for LNCaP AR Degradation Dmax / Dmax: maximum degradation observed, normalized as % of positive control (prior art AR PROTAC at 3 μM); for Dmax: LNCaP
T1 construct: the prostate cancer cell line LNCaP (expressing AR-full length); endogenous in cells; host or cells: LNCaP
Method: This cell-based imaging assay uses immuno-fluorescence to measure endogenous nuclear AR staining in the prostate cancer cell line LNCaP (expressing AR-full length). The purpose of the assay is to identify compounds that regulate AR protein level according to the protocol laid out in the steps below.
(§1) All work was performed in a sterile tissue culture hood up to the point of cell fixation. LNCaP cells were cultured at 6-8×10^6 per T175 flask and split every 3-4 days. Medium: RPMI (R7638, VWR Sigma) containing 10% FCS and 1% glutamine. Cells were plated in black wall transparent bottom plates at a density of 12,000 cells (Cedex™ Cell counter, Beckmann & Coulter), 40 μL per well, using a Multidrop (ThermoFisher).
(§2) Cells were dosed with test compound diluted in DMSO using an Echo 555/655™ (Labcyte) and the final concentration of DMSO in the well was 0.3%. A neutral control (DMSO) and a positive AR degrader control at 3 μM (a prior art AR PROTAC) were included. The Echo uses acoustic technology to perform direct microplate-to-microplate transfers of DMSO compound solutions to assay plates. The system can be programmed to transfer volumes as low as 2.5 nL in multiple increments between microplates and in so doing generates a serial dilution of compound in the assay plate which is then back-filled to normalise the DMSO concentration across the dilution range. Compounds were dispensed as a 12 point dose response with indicated concentrations. The plates were incubated at 37° C./5% CO2 for 24 h and then fixed and stained as below. 40 μL of 8% paraformaldehyde solution (v/v) in phosphate buffered saline (PBS) was added on top of the media already in the well using a Multidrop to fix plates giving a final concentration of 4% PFA (v/v) for 20-30 minutes (keep in fume hood to minimise PFA exposure). After 20-30 mins, the plates were washed with 3×PBS using a BioTek washer in a fume hood. A shake out of remaining volume in the well was performed to ensure best removal of remaining PBS. At this plates could be stored in PBS after washing for at least 3 days at 4° C., if so, PBS was removed by the BioTek before continuing with the next step.
(§3) The cells were incubated with a Mouse monoclonal Anti-AR antibody AR441 (DAKO M3562) (1:1000), diluted in modified blocking buffer (PBS+1% BSA+0.1% TritonX); 15 μL/well for 2 h at RT. The plates were then washed with 3×PBS using a BioTek washer. A shake out of remaining volume in the well was performed to ensure best removal of remaining PBS. Cells were then incubated with Goat anti-mouse secondary antibody 488 (Invitrogen A11001) (1:500) and nuclear stain, DRAQ5 (Abcam Ab108410) (1:2000) diluted in modified blocking buffer for 45 mins at room temperature 15 μL/well. Plates are then washed with 3×PBS using a BioTek washer, without final aspiration, and sealed with black plate seals. Plates could be stored after staining for three days at 4° C. before read if required.
(§4) Plates are read using a Cellomics Cellinsight to measure the Androgen Receptor level in each well. The data is exported into Genedata to perform curve fitting analysis. All data are normalized as % of positive control and the BellFit method automatically determines the correct fit method based on the presence of hook effect, choosing the BellFit when there is a hook and HillFit when there is no hook. Down-regulation of AR is expressed as a DC50 value and determined by calculation of the concentration of compound that is required to give 50% of maximum degradation of AR as per the curve fit for that compound. The maximum degradation observed for each compound is expressed as Dmax. The AR degradation data for compounds is shown in the table below and may be a result from a single experiment or an average of two or more experiments.

[2] = molecular target: T2, AR (L702H) in LNCaP cells (Homo sapiens, UniProt P10275, L702H/T878A); assay: LNCaP Androgen Receptor L702H Imaging Assay (LNCaP cells engineered by CRISPR/Cas9); assay type: cell-based; conditions: LNCaP cells with AR L702H mutation, 24 h incubation; for DC50: concentration giving 50% of maximum degradation of AR (L702H) per curve fit; for LNCaP AR (L702H) Degradation Dmax / Dmax: maximum degradation observed, normalized as % of positive control; for Dmax: LNCaP
T2 construct: engineered to introduce the mutation L702H into the AR gene using CRISPR/Cas9; endogenous in cells; host or cells: LNCaP cells edited by CRISPR/Cas9 at the AR gene
Method: as §1, §2, §3, §4
At this stage, anti-androgen therapy is largely ineffective due to AR amplification, overexpression or point mutation. One of the point mutations observed in patient populations is L702H in the AR Ligand Binding Domain. LNCAP cells have been engineered to introduce the mutation L702H into the AR gene using CRISPR/Cas9. The previously described imaging-based AR assay will monitor nuclear AR (L702H) levels in these cells to identify compounds that regulate AR (L702H). […]

T2 sequence (P10275 whole entry L702H/T878A): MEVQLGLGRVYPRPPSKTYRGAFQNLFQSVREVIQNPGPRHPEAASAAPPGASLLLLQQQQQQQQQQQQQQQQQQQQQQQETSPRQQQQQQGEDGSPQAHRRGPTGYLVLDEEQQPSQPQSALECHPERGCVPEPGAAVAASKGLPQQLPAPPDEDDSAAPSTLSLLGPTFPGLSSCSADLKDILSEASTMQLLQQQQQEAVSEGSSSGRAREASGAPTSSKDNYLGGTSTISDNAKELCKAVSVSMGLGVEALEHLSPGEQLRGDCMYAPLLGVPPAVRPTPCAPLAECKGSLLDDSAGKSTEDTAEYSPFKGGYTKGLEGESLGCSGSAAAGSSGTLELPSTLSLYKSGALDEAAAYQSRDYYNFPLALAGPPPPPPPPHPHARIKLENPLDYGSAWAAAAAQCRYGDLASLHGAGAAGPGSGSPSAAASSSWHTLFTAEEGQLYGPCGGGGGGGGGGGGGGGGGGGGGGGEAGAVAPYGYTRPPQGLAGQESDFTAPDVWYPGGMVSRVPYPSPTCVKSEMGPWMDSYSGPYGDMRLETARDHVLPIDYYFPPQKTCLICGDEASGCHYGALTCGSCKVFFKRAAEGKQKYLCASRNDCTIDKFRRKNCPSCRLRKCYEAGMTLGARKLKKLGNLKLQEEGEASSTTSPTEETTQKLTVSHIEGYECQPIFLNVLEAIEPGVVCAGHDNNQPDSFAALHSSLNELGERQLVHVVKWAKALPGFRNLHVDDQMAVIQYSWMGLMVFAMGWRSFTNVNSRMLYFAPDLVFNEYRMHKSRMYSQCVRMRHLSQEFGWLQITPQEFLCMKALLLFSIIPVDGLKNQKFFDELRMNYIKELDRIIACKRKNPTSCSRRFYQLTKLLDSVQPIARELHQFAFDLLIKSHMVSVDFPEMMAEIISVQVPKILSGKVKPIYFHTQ
T2 sequence (Q96SW2 whole entry partner): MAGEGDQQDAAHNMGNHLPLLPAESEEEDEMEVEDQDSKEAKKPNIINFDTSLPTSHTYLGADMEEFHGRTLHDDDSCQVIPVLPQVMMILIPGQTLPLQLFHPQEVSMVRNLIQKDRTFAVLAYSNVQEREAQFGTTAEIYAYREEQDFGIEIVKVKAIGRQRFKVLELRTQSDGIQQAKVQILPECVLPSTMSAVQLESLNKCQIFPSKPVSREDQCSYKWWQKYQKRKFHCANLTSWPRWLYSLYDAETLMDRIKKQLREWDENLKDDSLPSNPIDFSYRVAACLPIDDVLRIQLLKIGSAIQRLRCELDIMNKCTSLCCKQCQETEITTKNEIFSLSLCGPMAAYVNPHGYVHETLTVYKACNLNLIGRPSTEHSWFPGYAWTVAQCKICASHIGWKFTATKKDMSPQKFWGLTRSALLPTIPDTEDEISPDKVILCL
T1 sequence (P10275 whole entry T878A): as the sequence (P10275 whole entry L702H/T878A) above, with H702L counted along it
T1 sequence (Q96SW2 whole entry partner): as the sequence (Q96SW2 whole entry partner) above

SMILES	DC50 [1]	DC50 [2]	Dmax [1]	Dmax [2]	LNCaP AR Degradation Dmax [1]	LNCaP AR (L702H) Degradation Dmax [2]
Cc1ccc(N2CCC(c3ccc(OCCCCN4CCN(c5ccc6c(c5)CN(C5CCC(=O)NC5=O)C6=O)CC4)cc3)C2)c2[nH]cc(C#N)c12 (single isomer, unassigned) [Example 151, 7-{(3R*)-3-[4-(4-{4-[2-(2,6-Dioxopiperidin-3-yl)-1-oxo-2,3-dihydro-1H-isoindol-5-yl]piperazin-1-yl}butoxy)phenyl]pyrrolidin-1-yl}-4-methyl-1H-indole-3-carbonitrile]	18 nM	497 nM			67%	42%
Cc1ccc(C2CCCN(c3ccc(OCCCCN4CCN(c5ccc6c(c5)CN(C5CCC(=O)NC5=O)C6=O)CC4)cc3)C2)c2[nH]cc(C#N)c12 (single isomer, unassigned) [Example 79, 7-{(3S*)-1-[4-(4-{4-[2-(2,6-dioxopiperidin-3-yl)-1-oxo-2,3-dihydro-1H-isoindol-5-yl]piperazin-1-yl}butoxy)phenyl]piperidin-3-yl}-4-methyl-1H-indole-3-carbonitrile]	9 nM	21 nM			92%	79%
Cn1c(C2CCN(CC3CCN(c4ccc([C@H]5CCCN(c6ccc(Cl)c7c(C#N)n[nH]c67)C5)cc4)CC3)CC2)cc2cc(F)c(N3CCC(=O)NC3=O)cc21 [Example 138, 4-Chloro-7-[(3R)-3-{4-[4-({4-[6-(2,4-dioxo-1,3-diazinan-1-yl)-5-fluoro-1-methyl-1H-indol-2-yl]piperidin-1-yl}methyl)piperidin-1-yl]phenyl}piperidin-1-yl]-1H-indazole-3-carbonitrile]	8 nM	6 nM	104%	108%		
N#Cc1c[nH]c2c(N3CCC[C@@H](c4ccc(N5CCC(CN6CCN(c7ccc(C(=O)NC8CCC(=O)NC8=O)c(F)c7)CC6)CC5)cc4)C3)ccc(Cl)c12 (stereo partly drawn) [Example 104, 4-{4-[(1-{4-[(3S)-1-(4-chloro-3-cyano-1H-indol-7-yl)piperidin-3-yl]phenyl}piperidin-4-yl)methyl]piperazin-1-yl}-N-(2,6-dioxopiperidin-3-yl)-2-fluorobenzamide]	13 nM	46 nM	98%	97%		
N#Cc1c[nH]c2c(N3CCC(c4ccc(OCCCCN5CCC(n6ccc7c(N8CCC(=O)NC8=O)cccc76)CC5)cc4)CC3)ccc(F)c12 [Example 33, 7-{4-[4-(4-{4-[4-(2,4-Dioxo-1,3-diazinan-1-yl)-1H-indol-1-yl]piperidin-1-yl}butoxy)phenyl]piperidin-1-yl}-4-fluoro-1H-indole-3-carbonitrile]	12 nM	33 nM	97%	90%		
N#Cc1c[nH]c2c(N3CCC(NC(=O)c4ccc(N5CCC(CN6CCN(c7cc8c(cc7F)C(=O)N(C7CCC(=O)NC7=O)C8=O)CC6)CC5)cn4)CC3)ccc(Cl)c12 (stereo not drawn) [Example 169, N-[1-(4-Chloro-3-cyano-1H-indol-7-yl)piperidin-4-yl]-5-[4-({4-[2-(2,6-dioxopiperidin-3-yl)-6-fluoro-1,3-dioxo-2,3-dihydro-1H-isoindol-5-yl]piperazin-1-yl}methyl)piperidin-1-yl]pyridine-2-carboxamide]	5 nM	23 nM	86%	94%		
COc1nc(N2CCN(CC3CCN(c4ccc(C5CCN(c6ccc(Cl)c7c(C#N)c[nH]c67)CC5)cc4)CC3)CC2)cc2c1C(=O)N(C1CCC(=O)NC1=O)C2 (single isomer, unassigned) [Example 35, 4-Chloro-7-[4-(4-{4-[(4-{2-[(3R*)-2,6-dioxopiperidin-3-yl]-4-methoxy-3-oxo-2,3-dihydro-1H-pyrrolo[3,4-c]pyridin-6-yl}piperazin-1-yl)methyl]piperidin-1-yl}phenyl)piperidin-1-yl]-1H-indole-3-carbonitrile]	19 nM	29 nM	84%	91%		
COc1cc(N2CCN(CCCCOc3ccc(C4CCN(c5ccc(C)c6c(C#N)c[nH]c56)CC4)cc3)CC2)cc2c1C(=O)N(C1CCC(=O)NC1=O)C2=O (stereo not drawn) [Example 48, 7-{4-[4-(4-{4-[2-(2,6-Dioxopiperidin-3-yl)-7-methoxy-1,3-dioxo-2,3-dihydro-1H-isoindol-5-yl]piperazin-1-yl}butoxy)phenyl]piperidin-1-yl}-4-methyl-1H-indole-3-carbonitrile]	57 nM	359 nM	97%	99%		

Now from value to molecule, other results behind:

DC50 [1]	DC50 [2]	Dmax [1]	Dmax [2]	SMILES	LNCaP AR Degradation Dmax [1]	LNCaP AR (L702H) Degradation Dmax [2]
1 nM	2 nM	102%	109%	N#Cc1c[nH]c2c(N3CCC(NC(=O)c4ccc(N5CCC(CN6CCC(n7ccc8c(N9CCC(=O)NC9=O)cccc87)CC6)CC5)cc4)CC3)ccc(Cl)c12 [Example 173, N-[1-(4-Chloro-3-cyano-1H-indol-7-yl)piperidin-4-yl]-4-[4-({4-[4-(2,4-dioxo-1,3-diazinan-1-yl)-1H-indol-1-yl]piperidin-1-yl}methyl)piperidin-1-yl]benzamide]		
1 nM	4 nM	104%	105%	N#Cc1c[nH]c2c(N3CCC(NC(=O)c4ccc(N5CCC(CN6CCC(n7ccc8c(N9CCC(=O)NC9=O)cccc87)CC6)CC5)cc4F)CC3)ccc(Cl)c12 [Example 160, N-[1-(4-Chloro-3-cyano-1H-indol-7-yl)piperidin-4-yl]-4-[4-({4-[4-(2,4-dioxo-1,3-diazinan-1-yl)-1H-indol-1-yl]piperidin-1-yl}methyl)piperidin-1-yl]-2-fluorobenzamide]		
23 nM	10 nM	100%	99%	COc1nc(N2CCN(CC3CCN(c4ccc(N5CCCC(c6ccc(Cl)c7c(C#N)c[nH]c67)C5)cc4)CC3)CC2)cc2c1C(=O)N(C1CCC(=O)NC1=O)C2 (single isomer, unassigned) [Example 91, 4-Chloro-7-[(3R*)-1-{4-[4-({4-[2-(2,6-dioxopiperidin-3-yl)-4-methoxy-3-oxo-2,3-dihydro-1H-pyrrolo[3,4-c]pyridin-6-yl]piperazin-1-yl}methyl)piperidin-1-yl]phenyl}piperidin-3-yl]-1H-indole-3-carbonitrile]		
29 nM	103 nM	99%	96%	Cc1ccc(N2CCC(c3ccc(N4CCC(CN5CCC(n6ccc7c(N8CCC(=O)NC8=O)cccc76)CC5)CC4)cc3)CC2)c2[nH]cc(C#N)c12 [Example 8, 7-(4-{4-[4-({4-[4-(2,4-Dioxo-1,3-diazinan-1-yl)-1H-indol-1-yl]piperidin-1-yl}methyl)piperidin-1-yl]phenyl}piperidin-1-yl)-4-methyl-1H-indole-3-carbonitrile]		
